Data on one compound can be found in PMC1458514 (Nucleic Acids Research, 2006).

Test [1] addresses nucleoside diphosphate kinase (NDK A) (Homo sapiens, UniProt P15531). Description: pAp-agarose affinity chromatography of HeLa extract, LC-MS/MS. Format: cell-based.
For test [2], the target named is T1, small fragment nuclease (Sfn) (Homo sapiens, UniProt Q9Y3B8).
T1 sequence (Q9Y3B8 26-237): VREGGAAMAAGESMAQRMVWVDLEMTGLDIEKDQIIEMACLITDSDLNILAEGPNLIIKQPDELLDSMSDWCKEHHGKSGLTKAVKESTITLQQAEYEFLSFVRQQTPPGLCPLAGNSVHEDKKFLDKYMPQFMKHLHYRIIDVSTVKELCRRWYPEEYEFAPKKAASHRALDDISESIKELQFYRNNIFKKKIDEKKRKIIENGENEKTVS
Description: Cy5-RNA 5mer degradation assay. Format: biochemical.

Test [3] deals with T2, Oligoribonuclease (Orn) (Escherichia coli, UniProt P0A784).
T2 sequence (P0A784 2-181): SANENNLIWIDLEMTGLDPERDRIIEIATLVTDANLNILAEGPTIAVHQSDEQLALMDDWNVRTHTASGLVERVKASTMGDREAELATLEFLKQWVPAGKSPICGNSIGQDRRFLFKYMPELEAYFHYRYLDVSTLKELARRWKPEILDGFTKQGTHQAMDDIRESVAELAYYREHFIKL
In words: Cy5-RNA 5mer degradation assay. Format: biochemical.

Sequence of nucleoside diphosphate kinase (NDK A) (P15531 2-152): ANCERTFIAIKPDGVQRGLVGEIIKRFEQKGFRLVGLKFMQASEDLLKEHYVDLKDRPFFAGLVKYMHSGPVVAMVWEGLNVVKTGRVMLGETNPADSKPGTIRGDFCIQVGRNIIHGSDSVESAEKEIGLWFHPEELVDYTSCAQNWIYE

Turning to `Nc1ncnc2c1ncn2[C@@H]1O[C@H](COP(=O)(O)O)[C@@H](OP(=O)(O)O)[C@H]1O` [pAp], the “pAp-agarose affinity chromatography of HeLa extract, LC-MS/MS” value in test [1] is reported as “The second human enzyme we found to bind to pAp is NDK”. In addition, the “Cy5-RNA 5mer degradation assay (gel) with purified Sfn; also pAp-agarose capture” value in test [2] is on record as ~ 20 µM. The “Cy5-RNA 5mer degradation assay (gel) with purified Orn; also pAp-agarose affinit” value in test [3] is listed as ~ 20 µM.
